Converted amounts (≈) assume the structure as drawn.
Experiments:
Format in all cases: functional
Nannizzia gypsea = test: Antifungal activity against Microsporum gypseum assessed as reduction in fungal growth incubated for 5 to 7 days by NCCLS based assay; conditions: time 5-7 day
Cryptococcus neoformans = test: Antifungal activity against Cryptococcus neoformans 32609 assessed as reduction in fungal growth incubated for 72 hrs by NCCLS based assay
Nakaseomyces glabratus = test: Antifungal activity against Candida glabrata 537 assessed as reduction in fungal growth incubated for 72 hrs by NCCLS based assay
Aspergillus fumigatus = test: Antifungal activity against Aspergillus fumigatus 7544 assessed as reduction in fungal growth incubated for 5 to 7 days by NCCLS based assay; conditions: time 5-7 day
Candida albicans [1] = test: Antifungal activity against Candida albicans Y0109 assessed as reduction in fungal growth incubated for 24 hrs by NCCLS based assay
Trichophyton rubrum = test: Antifungal activity against Trichophyton rubrum assessed as reduction in fungal growth incubated for 5 to 7 days by NCCLS based assay; conditions: time 5-7 day
Candida albicans [2] = test: Antifungal activity against Candida albicans SC5314 assessed as reduction in fungal growth incubated for 24 hrs by NCCLS based assay
Geotrichum candidum = test: Antifungal activity against Geotrichum candidum RCMB 052006 assessed as diameter of inhibition zone incubated for 24 hrs by well diffusion assay
Bacillus subtilis [3] = test: Antibacterial activity against Bacillus subtilis RCMB 010069 assessed as diameter of inhibition zone incubated for 24 hrs by well diffusion assay
Aspergillus flavus = test: Antifungal activity against Aspergillus flavus assessed as diameter of inhibition zone incubated for 24 hrs by well diffusion assay
Staphylococcus aureus [4] = test: Antibacterial activity against Staphylococcus aureus assessed as diameter of inhibition zone incubated for 24 hrs by well diffusion assay
Escherichia coli = test: Antibacterial activity against Escherichia coli RCMB 010052 assessed as diameter of inhibition zone incubated for 24 hrs by well diffusion assay
Proteus vulgaris = test: Antibacterial activity against Proteus vulgaris RCMB 004 assessed as diameter of inhibition zone incubated for 24 hrs by well diffusion assay
Enterococcus faecium = test: Antibacterial activity against Enterococcus faecium assessed as inhibition of bacterial growth
[5] = tested on: Staphylococcus epidermidis; test: Antibacterial activity against Methicillin-sensitive Staphylococcus epidermidis assessed as bacterial growth inhibition
Staphylococcus aureus [6] = test: Antibacterial activity against Methicillin-resistant Staphylococcus aureus assessed as bacterial growth inhibition
Staphylococcus aureus [7] = test: Antibacterial activity against Methicillin-sensitive Staphylococcus aureus assessed as bacterial growth inhibition
Enterococcus faecalis = test: Antibacterial activity against Enterococcus faecalis assessed as bacterial growth inhibition
[8] = tested on: Staphylococcus epidermidis; test: Antibacterial activity against Methicillin-resistant Staphylococcus epidermidis assessed as bacterial growth inhibition
Bacillus subtilis [9] = test: Antibacterial activity against Bacillus subtilis MTCC 441 assessed as reduction in bacterial growth
Pseudomonas aeruginosa = test: Antibacterial activity against Pseudomonas aeruginosa MTCC 1034 assessed as reduction in bacterial growth

| Compound | MIC (Enterococcus faecium) | MIC [5] | MIC (Staphylococcus aureus [6]) | MIC (Staphylococcus aureus [7]) | MIC (Enterococcus faecalis) | MIC [8] | further results |
| --- | --- | --- | --- | --- | --- | --- | --- |
| C[C@@H](OCc1cc(-c2c(F)cc(F)cc2F)no1)[C@](O)(Cn1cncn1)c1ccc(F)cc1F |  |  |  |  |  |  | MIC80 (Nannizzia gypsea): 1 µg/mL (≈ 2.08 µM); MIC80 (Cryptococcus neoformans): 1 µg/mL (≈ 2.08 µM); MIC80 (Nakaseomyces glabratus): 0.125 µg/mL (≈ 0.26 µM); MIC80 (Aspergillus fumigatus): 4 µg/mL (≈ 8.33 µM); MIC80 (Candida albicans [1]): 0.062 µg/mL (≈ 0.129 µM); MIC80 (Trichophyton rubrum): 2 µg/mL (≈ 4.16 µM); MIC80 (Candida albicans [2]): 0.125 µg/mL (≈ 0.26 µM) |
| Cc1c(-c2cc(-c3c[nH]c4ccccc34)[nH]n2)nnn1-c1ccc(-n2nnc(-c3cc(-c4c[nH]c5ccccc45)[nH]n3)c2C)cc1 |  |  |  |  |  |  | diameter of the inhibition zone (DIZ) (Geotrichum candidum): 23.9 mm; diameter of the inhibition zone (DIZ) (Bacillus subtilis [3]): 33.5 mm; diameter of the inhibition zone (DIZ) (Aspergillus flavus): 19.5 mm; diameter of the inhibition zone (DIZ) (Staphylococcus aureus [4]): 19.3 mm; diameter of the inhibition zone (DIZ) (Escherichia coli): 28.4 mm; diameter of the inhibition zone (DIZ) (Proteus vulgaris): 19.2 mm |
| COc1c(N2C[C@H]3CCCN(C(=O)Cn4cc(CN5C(=O)C(=O)c6ccc(C)cc65)nn4)[C@H]3C2)c(F)cc2c(=O)c(C(=O)O)cn(C3CC3)c12 | 0.06 µg/mL (≈ 0.0878 µM) | 0.06 µg/mL (≈ 0.0878 µM) | 0.06 µg/mL (≈ 0.0878 µM) | 0.06 µg/mL (≈ 0.0878 µM) | 0.06 µg/mL (≈ 0.0878 µM) | 0.06 µg/mL (≈ 0.0878 µM) |  |
| CO/N=C1/C(=O)N(Cc2cn(CC(=O)N3CCC[C@@H]4CN(c5c(F)cc6c(=O)c(C(=O)O)cn(C7CC7)c6c5OC)C[C@@H]43)nn2)c2cc(F)ccc21 | 0.06 µg/mL (≈ 0.0837 µM) | 0.06 µg/mL (≈ 0.0837 µM) | 0.06 µg/mL (≈ 0.0837 µM) | 0.06 µg/mL (≈ 0.0837 µM) | 0.06 µg/mL (≈ 0.0837 µM) | 0.06 µg/mL (≈ 0.0837 µM) |  |
| CCO/N=C1/C(=O)N(Cc2cn(CC(=O)N3CCC[C@@H]4CN(c5c(F)cc6c(=O)c(C(=O)O)cn(C7CC7)c6c5OC)C[C@@H]43)nn2)c2cccc(F)c21 | 0.06 µg/mL (≈ 0.0821 µM) | 0.06 µg/mL (≈ 0.0821 µM) | 0.06 µg/mL (≈ 0.0821 µM) | 0.06 µg/mL (≈ 0.0821 µM) | 0.06 µg/mL (≈ 0.0821 µM) | 0.06 µg/mL (≈ 0.0821 µM) |  |
| Cc1ccc(-c2cc(CO[C@H](C)[C@](O)(Cn3cncn3)c3ccc(F)cc3F)on2)cc1 |  |  |  |  |  |  | MIC80 (Nannizzia gypsea): 2 µg/mL (≈ 4.54 µM); MIC80 (Cryptococcus neoformans): 2 µg/mL (≈ 4.54 µM); MIC80 (Nakaseomyces glabratus): 0.5 µg/mL (≈ 1.14 µM); MIC80 (Aspergillus fumigatus): 8 µg/mL (≈ 18.2 µM); MIC80 (Candida albicans [1]): 0.125 µg/mL (≈ 0.284 µM); MIC80 (Trichophyton rubrum): 4 µg/mL (≈ 9.08 µM); MIC80 (Candida albicans [2]): 0.25 µg/mL (≈ 0.568 µM) |
| C=CCCC1CC(=O)N1Cc1cn(-c2ccc(Cl)cc2)nn1 (centres undefined) |  |  |  |  |  |  | MIC (Bacillus subtilis [9]): 1.25 µg/mL (≈ 3.95 µM); MIC (Pseudomonas aeruginosa): 1.25 µg/mL (≈ 3.95 µM) |
| COc1c(N2C[C@H]3CCCN(C(=O)Cn4cc(CN5C(=O)C(=O)c6ccccc65)nn4)[C@H]3C2)c(F)cc2c(=O)c(C(=O)O)cn(C3CC3)c12 | 0.06 µg/mL (≈ 0.0896 µM) | 0.06 µg/mL (≈ 0.0896 µM) | 0.06 µg/mL (≈ 0.0896 µM) | 0.06 µg/mL (≈ 0.0896 µM) | 0.06 µg/mL (≈ 0.0896 µM) | 0.06 µg/mL (≈ 0.0896 µM) |  |
| COc1ccc(-c2cc(CO[C@H](C)[C@](O)(Cn3cncn3)c3ccc(F)cc3F)on2)cc1 |  |  |  |  |  |  | MIC80 (Nannizzia gypsea): 1 µg/mL (≈ 2.19 µM); MIC80 (Cryptococcus neoformans): 1 µg/mL (≈ 2.19 µM); MIC80 (Nakaseomyces glabratus): 0.5 µg/mL (≈ 1.1 µM); MIC80 (Aspergillus fumigatus): 4 µg/mL (≈ 8.76 µM); MIC80 (Candida albicans [1]): 0.125 µg/mL (≈ 0.274 µM); MIC80 (Trichophyton rubrum): 1 µg/mL (≈ 2.19 µM); MIC80 (Candida albicans [2]): 0.5 µg/mL (≈ 1.1 µM) |
| COc1c(N2C[C@H]3CCCN(C(=O)Cn4cc(CN5C(=O)C(=O)c6ccc(F)cc65)nn4)[C@H]3C2)c(F)cc2c(=O)c(C(=O)O)cn(C3CC3)c12 | 0.06 µg/mL (≈ 0.0873 µM) | 0.06 µg/mL (≈ 0.0873 µM) | 0.06 µg/mL (≈ 0.0873 µM) | 0.06 µg/mL (≈ 0.0873 µM) | 0.06 µg/mL (≈ 0.0873 µM) | 0.06 µg/mL (≈ 0.0873 µM) |  |
| C[C@@H](OCc1cc(-c2cccc(F)c2F)no1)[C@](O)(Cn1cncn1)c1ccc(F)cc1F |  |  |  |  |  |  | MIC80 (Nannizzia gypsea): 1 µg/mL (≈ 2.16 µM); MIC80 (Cryptococcus neoformans): 1 µg/mL (≈ 2.16 µM); MIC80 (Nakaseomyces glabratus): 0.5 µg/mL (≈ 1.08 µM); MIC80 (Aspergillus fumigatus): 8 µg/mL (≈ 17.3 µM); MIC80 (Candida albicans [1]): 0.25 µg/mL (≈ 0.541 µM); MIC80 (Trichophyton rubrum): 2 µg/mL (≈ 4.33 µM); MIC80 (Candida albicans [2]): 0.5 µg/mL (≈ 1.08 µM) |
| Cc1c(-c2cc(-c3ccccn3)nc(S)n2)nnn1-c1ccc(-n2nnc(-c3cc(-c4ccccn4)nc(S)n3)c2C)cc1 |  |  |  |  |  |  | diameter of the inhibition zone (DIZ) (Geotrichum candidum): 26.3 mm; diameter of the inhibition zone (DIZ) (Bacillus subtilis [3]): 36.2 mm; diameter of the inhibition zone (DIZ) (Aspergillus flavus): 24.02 mm; diameter of the inhibition zone (DIZ) (Staphylococcus aureus [4]): 23.3 mm; diameter of the inhibition zone (DIZ) (Escherichia coli): 35.2 mm; diameter of the inhibition zone (DIZ) (Proteus vulgaris): 23.3 mm |
| CCO/N=C1/C(=O)N(Cc2cn(CC(=O)N3CCC[C@@H]4CN(c5c(F)cc6c(=O)c(C(=O)O)cn(C7CC7)c6c5OC)C[C@@H]43)nn2)c2ccccc21 | 0.06 µg/mL (≈ 0.0842 µM) | 0.06 µg/mL (≈ 0.0842 µM) | 0.06 µg/mL (≈ 0.0842 µM) | 0.06 µg/mL (≈ 0.0842 µM) | 0.06 µg/mL (≈ 0.0842 µM) | 0.06 µg/mL (≈ 0.0842 µM) |  |
| CO/N=C1/C(=O)N(Cc2cn(CC(=O)N3CCC[C@@H]4CN(c5c(F)cc6c(=O)c(C(=O)O)cn(C7CC7)c6c5OC)C[C@@H]43)nn2)c2ccccc21 | 0.06 µg/mL (≈ 0.0859 µM) | 0.06 µg/mL (≈ 0.0859 µM) | 0.06 µg/mL (≈ 0.0859 µM) | 0.06 µg/mL (≈ 0.0859 µM) | 0.06 µg/mL (≈ 0.0859 µM) | 0.06 µg/mL (≈ 0.0859 µM) |  |

Source: ChEMBL document CHEMBL5634077, “Recent advances in 1,2,3- and 1,2,4-triazole hybrids as antimicrobials and their SAR: A critical review” (2023)
